Article PMC3320733 (International Journal of Antimicrobial Agents, 2012)
Where no end group is shown, it is not given here.

Columns and labels:
Type in all cases: cell-based
human red blood cells = test: Haemolytic effects on human red blood cells; details: 1 h
Bacillus subtilis 168 = test system: Bacillus subtilis 168
[1] = test system: Pseudomonas aeruginosa PAO1

Row | Substance | HL50 (concentration at which 50% of red blood cells were lysed) (human red blood cells) [µM] | MIC Bacillus subtilis (Bacillus subtilis 168) [µM] | MIC Pseudomonas aeruginosa [1] [µM]
1 | GLLGLLGSVVSHVVPAIVGHF-NH2 [Maculatin 1.3] [listing 1 of 2 here] | 25 | – | –
2 | FFHHIFRGIVHVGKTIHRLVTG [Piscidin 1] [listing 1 of 2 here] | – | 12.5 | 50
3 | GLLGLLGSVVSHVVPAIVGHF-NH2 [Maculatin 1.3] [listing 2 of 2 here] | – | 25 | >100
4 | GFKDLLKGAAKALVKTVLF-NH2 [Ascaphin-8] | 45 | 6.25 | 12.5
5 | FFHHIFRGIVHVGKTIHRLVTG [Piscidin 1] [listing 2 of 2 here] | 20 | – | –
6 | FFGKVLKLIRKIF-NH2 [DASamP1] | 25 | >100 | >100
